The values below come from US20250382303A1, “NOVEL COMPOUND AS NADPH OXIDASE 2 INHIBITOR AND PHARMACEUTICAL COMPOSITION CONTAINING SAME” (DONGGUK UNIVERSITY INDUSTRY-ACADEMIC COOPERATION FOUNDATION, priority 2022, published 2025).

This assay deals with T1, NOX2 (Homo sapiens, UniProt P04839).
T1 construct: Used for the NOX2 activity assay was human leukemia 60 cells (HL-60), which are widely, universally used to assess NOX2 activity; endogenous in cells
T1 sequence (P04839 2-570 limits assumed): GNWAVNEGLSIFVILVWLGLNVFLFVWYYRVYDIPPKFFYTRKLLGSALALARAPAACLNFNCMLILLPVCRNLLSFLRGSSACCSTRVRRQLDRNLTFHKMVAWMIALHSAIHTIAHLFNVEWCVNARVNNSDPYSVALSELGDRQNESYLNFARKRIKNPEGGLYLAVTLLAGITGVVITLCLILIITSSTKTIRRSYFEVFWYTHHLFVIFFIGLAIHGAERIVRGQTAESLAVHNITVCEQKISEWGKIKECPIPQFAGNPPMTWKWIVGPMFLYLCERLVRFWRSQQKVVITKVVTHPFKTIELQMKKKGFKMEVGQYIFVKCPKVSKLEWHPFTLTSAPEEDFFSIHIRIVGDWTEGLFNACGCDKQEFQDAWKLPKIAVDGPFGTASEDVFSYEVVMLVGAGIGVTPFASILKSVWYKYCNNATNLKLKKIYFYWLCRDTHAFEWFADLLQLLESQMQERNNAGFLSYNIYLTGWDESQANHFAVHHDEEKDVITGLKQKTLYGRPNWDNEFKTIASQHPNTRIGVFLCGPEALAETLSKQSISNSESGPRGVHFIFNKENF
T1 sequence (P13498 2-195 partner limits assumed): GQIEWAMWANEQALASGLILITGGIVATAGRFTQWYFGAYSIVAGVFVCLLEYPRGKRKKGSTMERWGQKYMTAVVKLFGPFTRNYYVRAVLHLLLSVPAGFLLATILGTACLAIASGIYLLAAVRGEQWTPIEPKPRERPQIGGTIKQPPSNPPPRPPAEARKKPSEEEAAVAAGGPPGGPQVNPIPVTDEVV
Description: NOX2 activity assay: PMA-induced ROS in ATRA-differentiated HL-60 cells (WST-1 or Amplex Red/HRP probe). It is filed as cell-based. The following applies: for IC50: WST-1 probe, differentiated HL-60, 200 ng/mL PMA, read-out: Inhibitory ability (NOX2); for NOX2 inhibitory ability, verbal rating: WST-1, comment on Table 1. On the procedure: NOX activity was evaluated by measuring the reactive oxygen species (ROS) produced by NOX. The probes that were used to measure ROS were water soluble tetrazolium-1 (WST-1, superoxide-specific colorimetric probe) and Amplex Red/horseradish peroxidase (AR/HRP, hydrogen peroxide-specific fluorometric probe), and the concentration of the probes used was […]. For WST-1, the change in the absorbance at 450 nm was measured, and, for AR, the change in fluorescence signals was measured at 560 nm and 585 nm, respectively for excitation wavelength (Ex) and emission wavelength (Em). The optical signal was measured using the SpectraMax M3 microplate reader from Molecular Devices at 37° C. for 60 minutes.
Used for the NOX2 activity assay was human leukemia 60 cells (HL-60), which are widely, universally used to assess NOX2 activity. 1×10^5 cells/mL of HL-60 were treated with […] all-trans-retinoic acid (ATRA) for 4 days to induce differentiation. Differentiated HL-60 (diff. HL-60) was centrifuged at 200 g for 5 minutes and washed twice with HBSS. Differentiation was induced to reach 3×10^4 cells/well on a 96-well plate (diff). HL-60 was seeded. The test material was treated to cells and left in a 37° C. incubator for 60 minutes. As a control group, the same concentration of DMSO, which is the vehicle of the test material, was used. 200 ng/mL phorbol 12-myristate 13-acetate (PMA) was used as the NOX2 activator, and the production amount of ROS induced by PMA was measured for 60 minutes. […] diphenyleneiodonium (DPI), which is well known to inhibit NOX, was used as a positive control group to evaluate whether the NOX2 activity tester properly operates.

On to `CC12CC(NC(=O)N1c1cccc(C(=O)N3CCc4ccccc4C3)c1)c1cc(F)ccc1O2` (stereo not drawn) [Compound 25d, 8-Fluoro-2-methyl-3-(3-(1,2,3,4-tetrahydroisoquinoline-2-carbonyl)phenyl)-5,6-dihydro-2H-2,6-methanobenzo[g][1,3,5]oxadiazocin-4(3H)-one], for which the IC50 lay in the range of 1 to 10 µM.

With `CC12CC(NC(=O)N1c1cccc(C(=O)N3CCc4cc(F)ccc4C3)c1)c1cc(-c3ccoc3)ccc1O2` (stereo not drawn) [Compound 28b, 3-(3-(6-Fluoro-1,2,3,4-tetrahydroisoquinoline-2-carbonyl)phenyl)-8-(furan-3-yl)-2-methyl-5,6-dihydro-2H-2,6-methanobenzo[g][1,3,5]oxadiazocin-4(3H)-one], the “NOX2 inhibitory ability, verbal rating” value is listed as “excellent inhibitory ability” and the IC50 was 1 to 10 µM.

`CC12CC(NC(=O)N1c1cccc(C(=O)N3CCc4ccccc4C3)c1)c1ccc(C(F)(F)F)cc1O2` (stereo not drawn) [Compound 25i, 2-Methyl-3-(3-(1,2,3,4-tetrahydroisoquinoline-2-carbonyl)phenyl)-9-(trifluoromethyl)-5,6-dihydro-2H-2,6-methanobenzo[g][1,3,5]oxadiazocin-4(3H)-one]: the IC50 was in the range of 1 to 10 µM.

For `CC12CC(NC(=O)N1c1cccc(C(=O)NCCc3ccc(C(F)(F)F)cc3)c1)c1ccccc1O2` (racemic) [Compound 8d, 3-(2-Methyl-4-oxo-5,6-dihydro-2H-2,6-methanobenzo[g][1,3,5]oxadiazocin-3(4H)-yl)-N-(4-(trifluoromethyl)phenethyl)benzamide], the IC50 is 1 to 10 µM.

With `CC12CC(NC(=O)N1c1cccc(C(=O)N3CCc4cc(C(F)(F)F)ccc4C3)c1)c1cc(-c3ccoc3)ccc1O2` (stereo not drawn) [Compound 28h, 8-(Furan-3-yl)-2-methyl-3-(3-(6-(trifluoromethyl)-1,2,3,4-tetrahydroisoquinoline-2-carbonyl)phenyl)-5,6-dihydro-2H-2,6-methanobenzo[g][1,3,5]oxadiazocin-4(3H)-one], the IC50 is above 10 µM.

Regarding `CC1(C)CN(C(=O)c2cccc(N3C(=O)NC4CC3(C)Oc3ccc(-c5ccoc5)cc34)c2)Cc2ccccc21` (stereo not drawn) [Compound 28i, 3-(3-(4,4-Dimethyl-1,2,3,4-tetrahydroisoquinoline-2-carbonyl)phenyl)-8-(furan-3-yl)-2-methyl-5,6-dihydro-2H-2,6-methanobenzo[g][1,3,5]oxadiazocin-4(3H)-one], the IC50 was 1 to 10 µM.

Consider `CC12CC(NC(=O)N1c1cccc(CNc3cccc(C(F)(F)F)c3)c1)c1ccccc1O2` (stereo not drawn) [Compound 19, 2-methyl-3-(3-(((3-(trifluoromethyl)phenyl)amino)methyl)phenyl)-5,6-dihydro-2H-2,6-methanobenzo[g][1,3,5]oxadiazocin-4(3H)-one], for which the IC50 is above 10 µM.

Take `CC12CC(NC(=O)N1c1cccc(C(=O)N3CCc4ncccc4C3)c1)c1cc(-c3ccoc3)ccc1O2` (stereo not drawn) [Compound 28k, 8-(Furan-3-yl)-2-methyl-3-(3-(5,6,7,8-tetrahydro-1,6-naphthyridine-6-carbonyl)phenyl)-5,6-dihydro-2H-2,6-methanobenzo[g][1,3,5]oxadiazocin-4(3H)-one]: the IC50 was above 10 µM.

For the molecule `C[C@@]12C[C@@H](NC(=O)N1c1cccc(C(=O)NCc3ccc(Br)cc3)c1)c1ccccc1O2` [Compound 10b, N-(4-Bromobenzyl)-3-((2R,6R)-2-methyl-4-oxo-5,6-dihydro-2H-2,6-methanobenzo[g][1,3,5]oxadiazocin-3(4H)-yl)benzamide], the IC50 was above 10 µM.

`CC12CC(NC(=O)N1c1cccc(C(=O)N3CCc4ccccc4C3)c1)c1cc(-c3ccsc3)ccc1O2` (stereo not drawn) [Compound 26a, 2-Methyl-3-(3-(1,2,3,4-tetrahydroisoquinoline-2-carbonyl)phenyl)-8-(thiophen-3-yl)-5,6-dihydro-2H-2,6-methanobenzo[g][1,3,5]oxadiazocin-4(3H)-one]: the “NOX2 inhibitory ability, verbal rating” value is on record as “excellent inhibitory ability” and the IC50 is below 1 µM. Moreover, the “concentration dependence of NOX2 inhibition” value (FIG. 1) is “inhibited NOX2 activity in a concentration-dependent manner”.

`C[C@]12C[C@H](NC(=O)N1c1cccc(C(=O)NCc3cc(Br)cc(Br)c3)c1)c1ccccc1O2` [Compound 10d, N-(3,5-Dibromobenzyl)-3-((2S,6S)-2-methyl-4-oxo-5,6-dihydro-2H-2,6-methanobenzo[g][1,3,5]oxadiazocin-3(4H)-yl)benzamide]: the IC50 was above 10 µM.

As for `CN(Cc1ccccc1)C(=O)c1cccc(N2C(=O)NC3CC2(C)Oc2ccccc23)c1` (racemic) [Compound 8i, N-Benzyl-N-methyl-3-(2-methyl-4-oxo-5,6-dihydro-2H-2,6-methanobenzo[g][1,3,5]oxadiazocin-3(4H)-yl)benzamide], the IC50 is above 10 µM.

Consider `CC12CC(NC(=O)N1c1cccc(C(=O)N3CCc4ccccc4C3)c1)c1c(F)cccc1O2` (stereo not drawn) [Compound 25m, 7-Fluoro-2-methyl-3-(3-(1,2,3,4-tetrahydroisoquinoline-2-carbonyl)phenyl)-5,6-dihydro-2H-2,6-methanobenzo[g][1,3,5]oxadiazocin-4(3H)-one], for which the IC50 lay within 1 to 10 µM.

Consider `CC12CC(NC(=O)N1c1cccc(C(=O)N3CCc4ccccc4C3)c1)c1cccc(-c3ccsc3)c1O2` (stereo not drawn) [Compound 26g, 2-Methyl-3-(3-(1,2,3,4-tetrahydroisoquinoline-2-carbonyl)phenyl)-10-(thiophen-3-yl)-5,6-dihydro-2H-2,6-methanobenzo[g][1,3,5]oxadiazocin-4(3H)-one], for which the IC50 was in the range of 1 to 10 µM.

Take `CC12CC(NC(=O)N1c1cccc(C(=O)N3CCc4ccc(F)cc4C3)c1)c1cc(Br)ccc1O2` (stereo not drawn) [Compound 27a, 8-Bromo-3-(3-(7-fluoro-1,2,3,4-tetrahydroisoquinoline-2-carbonyl)phenyl)-2-methyl-5,6-dihydro-2H-2,6-methanobenzo[g][1,3,5]oxadiazocin-4(3H)-one]: the IC50 lay within 1 to 10 µM.

`C[C@@]12C[C@@H](NC(=O)N1c1cccc(C(=O)N3CCc4ccccc4C3)c1)c1ccccc1O2` [Compound 10a, (2R,6R)-2-Methyl-3-(3-(1,2,3,4-tetrahydroisoquinoline-2-carbonyl)phenyl)-5,6-dihydro-2H-2,6-methanobenzo[g][1,3,5]oxadiazocin-4(3H)-one]: the IC50 was above 10 µM.

With `CC12CC(NC(=O)N1c1cccc(C(=O)N3CCc4c(cccc4C(F)(F)F)C3)c1)c1cc(-c3ccoc3)ccc1O2` (stereo not drawn) [Compound 28e, 8-(Furan-3-yl)-2-methyl-3-(3-(5-(trifluoromethyl)-1,2,3,4-tetrahydroisoquinoline-2-carbonyl)phenyl)-5,6-dihydro-2H-2,6-methanobenzo[g][1,3,5]oxadiazocin-4(3H)-one], the IC50 is 1 to 10 µM.

As for `CC12CC(NC(=O)N1c1cccc(C(=O)O)c1)c1ccccc1O2` (stereo not drawn) [Compound 7, 3-(2-Methyl-4-oxo-5,6-dihydro-2H-2,6-methanobenzo[g][1,3,5]oxadiazocin-3(4H)-yl)benzoic acid], the IC50 was above 10 µM.

In the case of `CC12CC(NC(=O)N1c1cccc(C(=O)N3CCc4ccc(F)cc4C3)c1)c1cc(-c3ccoc3)ccc1O2` (stereo not drawn) [Compound 28a, 3-(3-(7-Fluoro-1,2,3,4-tetrahydroisoquinoline-2-carbonyl)phenyl)-8-(furan-3-yl)-2-methyl-5,6-dihydro-2H-2,6-methanobenzo[g][1,3,5]oxadiazocin-4(3H)-one], the IC50 lay in the range of 1 to 10 µM.

Regarding `CC12CC(NC(=O)N1c1cccc(-c3ccco3)c1)c1ccccc1O2` (stereo not drawn) [Compound 15b, 3-(3-(Furan-2-yl)phenyl)-2-methyl-5,6-dihydro-2H-2,6-methanobenzo[g][1,3,5]oxadiazocin-4(3H)-one], the IC50 is above 10 µM.

`COc1cccc2c1OC1(C)CC2NC(=O)N1c1cccc(C(=O)N2CCc3ccccc3C2)c1` (stereo not drawn) [Compound 25g, 10-Methoxy-2-methyl-3-(3-(1,2,3,4-tetrahydroisoquinoline-2-carbonyl)phenyl)-5,6-dihydro-2H-2,6-methanobenzo[g][1,3,5]oxadiazocin-4(3H)-one]: the IC50 was above 10 µM.
